Read-outs that look alike come from different tables or passages of the source.
Columns and labels:
[1] = tested on: differentiating macrophages; assay: Human macrophage differentiation assay: cytotoxicity / cell counts at day 6; format: cell-based
Source text: Cells were counted following a 6-day culture of monocytes with GM-CSF and CSF-1, in the presence or absence of anti-CD115 mAbs or F(ab′)2 or with GW2580. Controls included cultures treated with rituximab or rituximab F(ab′)2, or without any added compound.
Buffy coats were provided by the Etablissement Francais du Sang (EFS, Strasbourg). Peripheral blood mononucleated cells (PBMC) were obtained by centrifugation on a ficoll gradient. Monocytes were purified by immunomagnetic cell sorting, using CD14-antibody-coated beads (Miltenyii). […] Monocytes were differentiated for 6 days in 48-well plates (3×10^5 cells/well) in RPMI-Glutamax™ medium supplemented with 10% heat inactivated fetal calf serum and 1% tri-antibiotic mixture (penicillin, streptomycin, neomycin). GM-CSF (10 ng/ml) was added in the cell culture medium from day 0 to day 3. H27K15, other antibodies or internal control GW2580 (LC Labs) were added at day 0. On day 3 post-isolation, monocytes were washed with PBS and further cultivated in medium supplemented with CSF-1 (10 ng/ml) and GM-CSF (2 ng/ml), in the presence or absence of antibodies or GW2580. On day 6, supernatants were collected and stored at −20° C. Cells were detached from the plastic and pools of triplicates were analyzed by IC/FC (immunocytochemistry/flow cytometry) for cell sizes and expression of FcγR and CD86. Cytokines and chemokines were quantified in the culture supernatants by multiplex (Bioplex, Bio-Rad) or by ELISA.
Three different doses of mab H27K15 or isotype control rituximab (0.1; 1 or 10 μg/ml) were added to the culture medium at the beginning of the culture and again 3 days later. F(ab′)2 generated from H27K15 or from rituximab were tested in parallel at equivalent molar concentrations.
Cell viability was analyzed at day 6 by counting 5 microscope fields in each well of the plate (one in the center of the well and four fields at mid-distance between the center and the side of the well).

[2] = tested on: IL-12p70 and IL-10 secretion by macrophages; assay: Human macrophage differentiation assay: IL-12p70 and IL-10 in day-6 culture supernatants; format: cell-based; conditions: for IL-12p70 secretion: detection limit 1 pg/ml
Protocol: IL-12p70 and IL-10 were titrated in the culture supernatants from day-6 macrophages differentiated in the presence of mAb H27K15 (1 μg/ml), GW2580 (1 μM) or their respective negative controls rituximab or no treatment. Left panel: IL-12p70 and IL-10 levels (pg/ml) in macrophage cultures from 3 blood donors. Right: IL-12p70 (pg/ml)/IL-10 (pg/ml) ratios were calculated for each blood donor and each culture condition. In samples where IL-12p70 was undetectable (below the detection limit of 1 pg/m)l, its level was arbitrarily set at 1 pg/ml for the calculation of IL-12p70/IL-10 ratios.
(§1) Buffy coats were provided by the Etablissement Francais du Sang (EFS, Strasbourg). Peripheral blood mononucleated cells (PBMC) were obtained by centrifugation on a ficoll gradient. Monocytes were purified by immunomagnetic cell sorting, using CD14-antibody-coated beads (Miltenyii). Enriched monocyte suspensions were more than 95% pure. Monocytes were differentiated for 6 days in 48-well plates (3×10^5 cells/well) in RPMI-Glutamax™ medium supplemented with 10% heat inactivated fetal calf serum and 1% tri-antibiotic mixture (penicillin, streptomycin, neomycin). GM-CSF (10 ng/ml) was added in the cell culture medium from day 0 to day 3. H27K15, other antibodies or internal control GW2580 (LC Labs) were added at day 0. On day 3 post-isolation, monocytes were washed with PBS and further cultivated in medium supplemented with CSF-1 (10 ng/ml) and GM-CSF (2 ng/ml), in the presence or absence of antibodies or GW2580. On day 6, supernatants were collected and stored at −20° C. Cells were detached from the plastic and pools of triplicates were analyzed by IC/FC (immunocytochemistry/flow cytometry) for cell sizes and expression of FcγR and CD86. Cytokines and chemokines were quantified in the culture supernatants by multiplex (Bioplex, Bio-Rad) or by ELISA.
To study whether mAb H27K15 could affect macrophage differentiation, purified CD14^+ monocytes were cultured for […] in the presence of GM-CSF and CSF-1, known to induce respectively M1- and M2-type macrophages (Akagawa K. S., 2002; Verreck F. A. et al., 2004). Three different doses of mab H27K15 or isotype control rituximab (0.1; 1 or 10 μg/ml) were added to the culture medium at the beginning of the culture and again 3 days later. F(ab′)2 generated from H27K15 or from rituximab were tested in parallel at equivalent molar concentrations. F(ab′)2 generated from mAb 1.2 SM (WO 2009/026303) was tested for comparison with the F(ab′)2 derived from H27K15 or rituximab. The known blocking mAb to human CD115, 2-4A5, or the non-blocking mAb 9-4D2 (Sherr C. J. et al., 1989) were assayed and compared with isotype control rat IgG1. […]

[3] = tested on: MMP-9 production by monocytes cultured with GM-CSF and CSF-1; assay: MMP-9 ELISA in day-6 supernatants of monocytes cultured with GM-CSF and CSF-1; format: cell-based, human; conditions: GW2580, effect in 2 out of 3 donors
Protocol: FIG. 6. Monocytes isolated from 3 different blood donors were differentiated for 6 days in the presence of GM-CSF and CSF-1, with or without mAb H27K15, Rituximab or GW2580. MAb H27K15 or Rituximab (0.1, 1 or 10 μg/ml) or equimolar concentrations of F(ab)′2 derived from both mAbs were added to the cultures. MMP-9 was titrated by ELISA (R&D Systems) in day-6 culture supernatants.
(§2) Buffy coats were provided by the Etablissement Francais du Sang (EFS, Strasbourg). Peripheral blood mononucleated cells (PBMC) were obtained by centrifugation on a ficoll gradient. Monocytes were purified by immunomagnetic cell sorting, using CD14-antibody-coated beads (Miltenyii). Enriched monocyte suspensions were more than 95% pure. […] Cells were detached from the plastic and pools of triplicates were analyzed by IC/FC (immunocytochemistry/flow cytometry) for cell sizes and expression of FcγR and CD86. Cytokines and chemokines were quantified in the culture supernatants by multiplex (Bioplex, Bio-Rad) or by ELISA.
CD14^+ monocytes from 3 different donors were allowed to differentiate in the presence of both GM-CSF and CSF-1, known to induce macrophage differentiation towards respectively the M1- and M2-types. […] After 6 days of culture, MMP-9 concentrations were measured in the supernatants by ELISA (FIG. 6). […]

[4] = tested on: CD163-positive M2-type macrophages; assay: Flow cytometry of CD163-positive cells in day-6 macrophages; format: cell-based, human; conditions: 3 donors
Protocol: FIG. 7 Cells obtained after 6-day culture with GM-CSF and CSF-1 were harvested and incubated for 20 min at 4° C. with PBS containing human IgG Fc fragments to saturate Fc receptors. Fluorochrome-conjugated mAbs (anti-CD14-PerCP-Cy5.5, anti-CD163-PE, anti-CD206-APC, anti-CD1a-FITC, BD Biosciences) were then incubated with each sample for 20 min at 4° C. FCM analysis was performed using a FACS LSR-II (BD biosciences) with the DIVA software. Data from 3 different blood donors are presented.
as §2, with “ELISA. […]” for “ELISA.”
The surface expression of CD163 was analyzed by flow cytometry in day-6 macrophages derived from human monocytes cultured with GM-CSF and CSF-1. […]

[5] = tested on: MCP-1/CCL2 secretion by macrophages; assay: Human macrophage differentiation assay: MCP-1 in day-6 culture supernatants; format: cell-based; conditions: day-6 macrophage supernatants, GW2580 1 μM vs no treatment
Protocol: MCP-1 and IL-6 were titrated in the culture supernatants from day-6 macrophages differentiated in the presence of mAb H27K15 (1 μg/ml), GW2580 (1 μM) or their respective negative controls rituximab or no treatment. Percentages of reduction in MCP-1 (upper panel) or in IL-6 production (lower panel) were calculated for the 3 blood donors as: 100−[100×cytokine concentration with test compound (pg/ml)/cytokine concentration with control (pg/ml)].
as §1, with “H27K15, other antibodies or internal control GW2580 (LC Labs) were added at day 0. On day 3 post-isolation, monocytes were washed with PBS and further cultivated in medium supplemented with CSF-1 (10 ng/ml) and GM-CSF (2 ng/ml), in the presence or absence of antibodies or GW2580. On day 6, supernatants were collected and stored at −20° C.” left out, “ELISA. […]” for “ELISA.”

[6] = tested on: CD64 (FcγRI) expression in human macrophages; assay: Human macrophage differentiation assay: surface CD64 expression by IC/FC; format: cell-based; conditions: day-6 macrophages, GW2580 vs no treatment
Protocol: Macrophages obtained following a 6-day culture of monocytes from 3 different blood donors with GM-CSF and CSF-1 were analyzed by IC/FC for surface expression of CD64. Upper panels: CD64 staining in cultures from donor 1 treated with monoclonal antibody H27K15 (left, bold line) or with GW2580 (right, bold line) or their respective negative controls rituximab (left, thin line) or no treatment (right, thin line). Lower panel: Medians of fluorescence intensities in macrophage cultures treated with test compounds at 10, 1 or 0.1 μg/ml* were compared with those in the corresponding negative controls: H27K15 vs rituximab, H27K15-derived F(ab′)2 vs rituximab-derived F(ab′)2, mAbs 2-4A5 or 9-4D2 vs rat IgG1, GW2580 vs no treatment. Percentages of reduction in CD64 expression were calculated as: 100−[100×Median fluorescence intensity with test compound/Median fluorescence intensity with control]. […]
(§3) Buffy coats were provided by the Etablissement Francais du Sang (EFS, Strasbourg). […] Cells were detached from the plastic and pools of triplicates were analyzed by IC/FC (immunocytochemistry/flow cytometry) for cell sizes and expression of FcγR and CD86. Cytokines and chemokines were quantified in the culture supernatants by multiplex (Bioplex, Bio-Rad) or by ELISA. […]

[7] = tested on: CD86^bright SSC^low macrophage population; assay: Human macrophage differentiation assay: CD86^bright SSC^low population by IC/FC; format: cell-based; conditions: day-6 macrophages, GW2580 vs no treatment
Protocol: Upper panels: Dot plots showing CD86 staining (x-axis) and side scatter (SSC, y-axis) of macrophages from donor 3 differentiated for 6 days in the presence of H27K15 (left) or negative control rituximab (right). A gate was set on the CD86^bright SSC^low cell population induced by H27K15. Lower panel: Percentages of CD86^bright SSC^low cells with the test compounds at 10, 1 or 0.1 μg/ml* were compared with those in the corresponding negative controls: H27K15 vs rituximab, H27K15-derived F(ab′)2 vs rituximab-derived F(ab′)2, GW2580 vs no treatment. Percentages of increase in the CD86^bright SSC^low cell population were calculated as: 100×percentage of CD86^bright SSC^low cells with test compound/percentage of CD86^bright SSC^low cells with control. Shown are the mean percentages of increase in the CD86^bright SSC^low cell population from the 3 blood donors. *except for F(ab′)2: 6.6; 0.6; and 0.06 μg/ml.
as §3, with “Strasbourg). Peripheral blood mononucleated cells (PBMC) were obtained by centrifugation on a ficoll gradient.” for “Strasbourg).”

Rituximab F(ab′)2: F(ab′)2 produced by pepsine digestion of rituximab, negative control
Microscopical observation of day-6 cultures (cytotoxicity) ([1]; compared with untreated cells, independently of the blood donor, monocytes cultured with GM-CSF and CSF-1): no obvious differences

Rituximab: human IgG1 isotype control, obtained from Roche
Microscopical observation of day-6 cultures (cytotoxicity) [1]: no obvious differences
IL-12p70 secretion ([2]; 3 blood donors, mAb 1 μg/ml): did not produce any detectable IL-12p70

COc1ccc(COc2ccc(Cc3cnc(N)nc3N)cc2OC)cc1 [GW2580]
Microscopical observation of day-6 cultures (cytotoxicity) ([1]; 1 μM, all blood donors, debris and less density of cells): relative cytotoxicity
Macrophage number remaining at day 6 compared with untreated cultures ([1]; GW2580 1 μM, cell counts in 5 microscope fields (FIG. 1)): approximately 70%
MMP-9 production [3]: dose-dependent decrease
Differentiation of the CD163+ macrophage population (CD163 expression) [4]: had the same effect in only ⅔ donors
IL-10 production ([2]; GW2580 1 μM): inhibition of IL-10 production
IL-12p70/IL-10 ratios ([2]; GW2580 1 μM vs no treatment): increased
IL-12p70 secretion ([2]; GW2580 1 μM): not detectable
Suppression of MCP-1 production [5]: as efficacious as H27K15
Surface expression of CD64 [6]: drastically reduced
Induction of CD86^bright SSC^low cell sub-population [7]: had appeared
